Assay results from PubChem BioAssay AID1963450 (Molecular Pharmacology Branch, DTP, NCI, 2024).

Test system: 556581-035-R-J1-PDC complex spheroid growth
Assay: Anticancer human tumor 556581-035-R-J1-PDC patient-derived ovarian carcinoma cell line growth inhibition [Asc]
Settings: for IC50: curve of first compound; for viability, T/C: stronger effect = lower value
Method in brief: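 Complex solid-tumor spheroids incorporating human endothelial and mesenchymal stem cells received single agents or combinations over half-log dilution ranges anchored to clinical Cmax.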

[1] = second compound 0.1 µM, first compound 0.0316 µM
[2] = second compound 0.1 µM, first compound 0.1 µM
[3] = second compound 0.316 µM, first compound 0.0316 µM
[4] = second compound 0.316 µM, first compound 0.1 µM
[5] = second compound 1 µM, first compound 0.0316 µM
[6] = second compound 1 µM, first compound 0.1 µM
[7] = second compound 3.16 µM, first compound 0.0316 µM
[8] = second compound 3.16 µM, first compound 0.1 µM
[9] = second compound 10 µM, first compound 0.0316 µM
[10] = second compound 10 µM, first compound 0.1 µM
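Further: spheroids exposed to agents for 7 days before viability read.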

How did the IC50 (second compound 0.1 µM) turn out when Cn1ncnc1[C@H]1c2n[nH]c(=O)c3cc(F)cc(c23)N[C@@H]1c1ccc(F)cc1 + Cc1c(S(C)(=O)=O)c(-c2cc(F)cc(N3CCN(c4ccc(NS(=O)(=O)c5ccc(NC(CCN6CCC(C(=O)OCCCP(=O)(O)O)CC6)CSc6ccccc6)c(S(=O)(=O)C(F)(F)F)c5)cc4)CC3)c2)c(-c2ccc(Cl)cc2)n1C(C)C was run?
Its IC50 is > 0.1 µM.

And the IC50 (second compound 0.316 µM)?
Its IC50 is > 0.1 µM.

What about the IC50 (second compound 1 µM) of the same compound?
The IC50 was > 0.1 µM.

And the IC50 (second compound 3.16 µM)?
The IC50 was > 0.1 µM.

And the IC50 (second compound 10 µM)?
The IC50 was > 0.1 µM.

And the viability, T/C (second compound 0.1 µM, first compound 0.000316 µM)?
The viability, T/C was 67.5%.

What about the viability, T/C (second compound 0.1 µM, first compound 0.001 µM) of the same compound?
Its viability, T/C is 88%.

And the viability, T/C (second compound 0.1 µM, first compound 0.00316 µM)?
Its viability, T/C is 94.8%.

What about the viability, T/C (second compound 0.1 µM, first compound 0.01 µM) of the same compound?
Its viability, T/C is 78%.

What about the viability, T/C [1] of the same compound?
The viability, T/C was 84.4%.

What about the viability, T/C [2] of the same compound?
The viability, T/C was 77.2%.

What about the viability, T/C (second compound 0.316 µM, first compound 0.000316 µM) of the same compound?
Its viability, T/C is 84.9%.

And the viability, T/C (second compound 0.316 µM, first compound 0.001 µM)?
The viability, T/C was 81.1%.

What about the viability, T/C (second compound 0.316 µM, first compound 0.00316 µM) of the same compound?
The viability, T/C was 72%.

What about the viability, T/C (second compound 0.316 µM, first compound 0.01 µM) of the same compound?
The viability, T/C was 66.6%.

What about the viability, T/C [3] of the same compound?
Its viability, T/C is 79.9%.

What about the viability, T/C [4] of the same compound?
The viability, T/C was 84%.

And the viability, T/C (second compound 1 µM, first compound 0.000316 µM)?
Its viability, T/C is 79.5%.

What about the viability, T/C (second compound 1 µM, first compound 0.001 µM) of the same compound?
Its viability, T/C is 84.2%.

What about the viability, T/C (second compound 1 µM, first compound 0.00316 µM) of the same compound?
Its viability, T/C is 78.3%.

What about the viability, T/C (second compound 1 µM, first compound 0.01 µM) of the same compound?
Its viability, T/C is 79.8%.

And the viability, T/C [5]?
Its viability, T/C is 73.7%.

And the viability, T/C [6]?
The viability, T/C was 72.1%.

What about the viability, T/C (second compound 3.16 µM, first compound 0.000316 µM) of the same compound?
Its viability, T/C is 74.3%.

What about the viability, T/C (second compound 3.16 µM, first compound 0.001 µM) of the same compound?
Its viability, T/C is 73.2%.

What about the viability, T/C (second compound 3.16 µM, first compound 0.00316 µM) of the same compound?
The viability, T/C was 70.2%.

And the viability, T/C (second compound 3.16 µM, first compound 0.01 µM)?
The viability, T/C was 72.9%.

What about the viability, T/C [7] of the same compound?
Its viability, T/C is 64.4%.

And the viability, T/C [8]?
Its viability, T/C is 81.8%.

What about the viability, T/C (second compound 10 µM, first compound 0.000316 µM) of the same compound?
The viability, T/C was 86.4%.

And the viability, T/C (second compound 10 µM, first compound 0.001 µM)?
The viability, T/C was 69.2%.

What about the viability, T/C (second compound 10 µM, first compound 0.00316 µM) of the same compound?
The viability, T/C was 66.5%.

And the viability, T/C (second compound 10 µM, first compound 0.01 µM)?
The viability, T/C was 64.5%.

What about the viability, T/C [9] of the same compound?
Its viability, T/C is 62.7%.

And the viability, T/C [10]?
Its viability, T/C is 64.9%.

O=C(c1cc(Cc2n[nH]c(=O)c3ccccc23)ccc1F)N1CCN(C(=O)C2CC2)CC1 + Cc1c(S(C)(=O)=O)c(-c2cc(F)cc(N3CCN(c4ccc(NS(=O)(=O)c5ccc(NC(CCN6CCC(C(=O)OCCCP(=O)(O)O)CC6)CSc6ccccc6)c(S(=O)(=O)C(F)(F)F)c5)cc4)CC3)c2)c(-c2ccc(Cl)cc2)n1C(C)C was tested. Which IC50 (second compound 0.1 µM) did it give?
The IC50 was > 10 µM.

And the IC50 (second compound 0.316 µM)?
The IC50 was > 10 µM.

And the IC50 (second compound 1 µM)?
The IC50 was > 10 µM.

What about the IC50 (second compound 3.16 µM) of the same compound?
The IC50 was > 10 µM.

What about the IC50 (second compound 10 µM) of the same compound?
The IC50 was > 10 µM.

What about the viability, T/C [1] of the same compound?
Its viability, T/C is 87.3%.

And the viability, T/C [2]?
Its viability, T/C is 81.3%.

What about the viability, T/C (second compound 0.1 µM, first compound 0.316 µM) of the same compound?
The viability, T/C was 92.9%.

And the viability, T/C (second compound 0.1 µM, first compound 1 µM)?
The viability, T/C was 96%.

What about the viability, T/C (second compound 0.1 µM, first compound 3.16 µM) of the same compound?
The viability, T/C was 82.3%.

And the viability, T/C (second compound 0.1 µM, first compound 10 µM)?
Its viability, T/C is 77.2%.

What about the viability, T/C [3] of the same compound?
Its viability, T/C is 73.6%.

And the viability, T/C [4]?
The viability, T/C was 90.2%.

And the viability, T/C (second compound 0.316 µM, first compound 0.316 µM)?
The viability, T/C was 73.3%.

And the viability, T/C (second compound 0.316 µM, first compound 1 µM)?
The viability, T/C was 89.8%.

What about the viability, T/C (second compound 0.316 µM, first compound 3.16 µM) of the same compound?
The viability, T/C was 83.4%.

And the viability, T/C (second compound 0.316 µM, first compound 10 µM)?
The viability, T/C was 66.8%.

And the viability, T/C [5]?
The viability, T/C was 70.8%.

And the viability, T/C [6]?
The viability, T/C was 69%.

And the viability, T/C (second compound 1 µM, first compound 0.316 µM)?
Its viability, T/C is 73.4%.

What about the viability, T/C (second compound 1 µM, first compound 1 µM) of the same compound?
Its viability, T/C is 78%.

And the viability, T/C (second compound 1 µM, first compound 3.16 µM)?
The viability, T/C was 66.3%.

And the viability, T/C (second compound 1 µM, first compound 10 µM)?
The viability, T/C was 66.4%.

What about the viability, T/C [7] of the same compound?
The viability, T/C was 63.4%.

What about the viability, T/C [8] of the same compound?
The viability, T/C was 75.6%.

What about the viability, T/C (second compound 3.16 µM, first compound 0.316 µM) of the same compound?
Its viability, T/C is 67.6%.

And the viability, T/C (second compound 3.16 µM, first compound 1 µM)?
The viability, T/C was 65.8%.

What about the viability, T/C (second compound 3.16 µM, first compound 3.16 µM) of the same compound?
The viability, T/C was 66.9%.

And the viability, T/C (second compound 3.16 µM, first compound 10 µM)?
The viability, T/C was 57.9%.

What about the viability, T/C [9] of the same compound?
The viability, T/C was 68%.

What about the viability, T/C [10] of the same compound?
The viability, T/C was 80.7%.

And the viability, T/C (second compound 10 µM, first compound 0.316 µM)?
The viability, T/C was 60.6%.

What about the viability, T/C (second compound 10 µM, first compound 1 µM) of the same compound?
The viability, T/C was 54.2%.

And the viability, T/C (second compound 10 µM, first compound 3.16 µM)?
The viability, T/C was 57.1%.

What about the viability, T/C (second compound 10 µM, first compound 10 µM) of the same compound?
Its viability, T/C is 77.5%.
